Legend:
Format in all cases: cell-based
GPR124 = target: T1, GPR124 (Homo sapiens, UniProt Q96PE1); experiment: ST-11 toxicity in T98 g cells after siRNA knock-down of GPR124; conditions: ST-11 1 μM, siRNA targeting GPR124, viability after three days
T1 construct: endogenous in cells; host or cells: T98g human astrocytoma cells
T1 sequence (Q96PE1 34-1338): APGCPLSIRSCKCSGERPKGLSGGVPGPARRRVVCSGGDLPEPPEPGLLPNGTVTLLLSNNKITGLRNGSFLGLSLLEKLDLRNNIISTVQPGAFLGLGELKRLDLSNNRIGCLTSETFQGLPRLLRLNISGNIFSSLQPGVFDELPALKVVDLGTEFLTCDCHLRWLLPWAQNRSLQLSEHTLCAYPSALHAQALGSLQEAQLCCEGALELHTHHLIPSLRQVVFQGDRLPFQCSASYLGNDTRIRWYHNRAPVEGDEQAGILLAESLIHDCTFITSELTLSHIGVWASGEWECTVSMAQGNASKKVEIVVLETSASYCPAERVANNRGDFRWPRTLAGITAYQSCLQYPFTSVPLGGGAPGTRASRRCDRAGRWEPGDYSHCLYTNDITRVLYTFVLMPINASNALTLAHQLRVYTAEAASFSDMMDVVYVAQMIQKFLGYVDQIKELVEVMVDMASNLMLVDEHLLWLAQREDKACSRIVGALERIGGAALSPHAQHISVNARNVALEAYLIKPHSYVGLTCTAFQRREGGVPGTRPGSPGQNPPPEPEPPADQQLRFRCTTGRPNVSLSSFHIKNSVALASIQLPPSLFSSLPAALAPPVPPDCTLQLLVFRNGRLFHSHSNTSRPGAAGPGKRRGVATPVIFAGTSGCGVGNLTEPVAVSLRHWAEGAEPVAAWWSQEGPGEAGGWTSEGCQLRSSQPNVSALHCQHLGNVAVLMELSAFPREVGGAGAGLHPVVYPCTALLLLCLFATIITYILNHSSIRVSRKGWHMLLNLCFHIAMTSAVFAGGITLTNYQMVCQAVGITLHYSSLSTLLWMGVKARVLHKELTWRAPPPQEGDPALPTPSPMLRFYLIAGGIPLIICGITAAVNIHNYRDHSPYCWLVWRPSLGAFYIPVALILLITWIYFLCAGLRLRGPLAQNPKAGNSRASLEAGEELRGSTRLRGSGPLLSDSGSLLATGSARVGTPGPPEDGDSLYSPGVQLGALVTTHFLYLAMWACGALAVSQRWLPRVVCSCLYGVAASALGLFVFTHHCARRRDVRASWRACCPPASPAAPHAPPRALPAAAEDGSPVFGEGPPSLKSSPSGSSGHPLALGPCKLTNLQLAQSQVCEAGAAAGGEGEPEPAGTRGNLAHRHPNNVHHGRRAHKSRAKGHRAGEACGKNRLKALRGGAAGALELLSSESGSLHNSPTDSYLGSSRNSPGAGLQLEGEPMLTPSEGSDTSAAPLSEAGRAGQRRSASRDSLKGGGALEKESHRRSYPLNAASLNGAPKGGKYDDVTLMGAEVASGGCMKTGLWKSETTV
Experimental: To determine which of the gene candidate encodes for AI receptors, an siRNA approach is used to knock down each candidate individually to determine which one prevents the toxic effect of ST-11 and thus encodes for AI receptors. The prediction is that knocking down AI receptors prevents the cell death induced by ST-11. T98 g cells were treated with siRNA targeting each of the 39 GPCR gene candidates individually. The first experiment was designed to knock down each GPCR candidate liming a mixture of 3 siRNAs, and thus maximize genetic targeting efficacy. Thus, cells were incubated with siRNA mixtures and then treated with ST-11 (1 μM) and cell viability measured after three days. Only one mixture of siRNAs (that targeting GPR124) decreased the toxicity of ST-11. […] Two of the three siRNAs knocked-down GPR124 expression by more than 80% over 4 days (FIG. 5b). […] The killing effect induced by ST-11 is mediated by GPR124, an AI receptor.

CB2 = CB2 (Homo sapiens, UniProt P34972); experiment: HA-tagged receptor internalization, CB2; set-up: HA; expressed in transfected cells; conditions: FIG. 2b
Description: FIGS. 2d and 2e illustrate the co-docking of CP55940 and either WIN55212-2 (d) or ST-11 (e) in hCB1 receptors.

[1] = system: mouse microglia in primary culture; experiment: IP production in mouse microglia
[2] = system: mouse microglia in primary culture; experiment: NO production in mouse microglia
[3] = system: mouse microglia in primary culture; experiment: Cell viability in mouse microglia

CB2, sequence (P34972 whole entry): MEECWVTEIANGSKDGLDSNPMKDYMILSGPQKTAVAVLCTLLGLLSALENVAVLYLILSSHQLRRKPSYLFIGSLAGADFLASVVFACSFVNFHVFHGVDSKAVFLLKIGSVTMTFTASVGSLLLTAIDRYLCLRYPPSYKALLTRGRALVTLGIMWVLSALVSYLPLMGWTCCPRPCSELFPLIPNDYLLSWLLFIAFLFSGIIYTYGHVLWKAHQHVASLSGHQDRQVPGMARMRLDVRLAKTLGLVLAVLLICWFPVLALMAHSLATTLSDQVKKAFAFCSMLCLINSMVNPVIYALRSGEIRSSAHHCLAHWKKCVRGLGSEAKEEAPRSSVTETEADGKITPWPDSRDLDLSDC

SMILES: CCn1c(C)c(C(=O)c2ccc(C)c3ccccc23)c2ccccc21 [ST-11]
- ST-11-induced killing of T98 g cells when GPR124 mRNA expression is reduced (GPR124): reduced
- cross-activation of human CB2 receptors (receptor internalization) (CB2): engage CB2 receptors
- IP production [1]: does not stimulate or inhibit IP production
- NO production [2]: does not stimulate or inhibit
- cell viability in microglia [3]: does not
